Assay results as given in patent US11752125B2, “Anti-neuroinflammatory and protective compounds in Achillea fragrantissima” (THE STATE OF ISRAEL MINISTRY OF AGRICULTURE & RURAL …, priority 2013, dated 2023).

Key:
IL-1β = IL-1β secretion from LPS-stimulated microglial cells (ELISA); format: cell-based, rat; conditions: LPS 100 ng/mL, 24 h
Procedure: (§1) Cultures of primary rat microglial cells were prepared from cerebral cortices of 1-2 day-old neonatal Wistar rats as described. Microglial cells were seeded at 24-well plastic plates at 1×10^5/well in RPMI-1640 containing 2% FBS, 2 mM glutamine, 100 U/mL penicillin, 100 µg/mL streptomycin, 1 mM sodium pyruvate, and 50 μM β-mercaptoethanol. Cells were cultured for 36 h before treatments. The research was conducted in accordance with the NIH guide for the care and use of laboratory animals, and was approved by the Institutional Animal Care and Use Committee of The Volcani Center, Agricultural Research Organization (IL-135/07, approval date Apr. 11, 2007). All efforts were made to minimize animal suffering, and to reduce the number of animals used.
For IL-1β measurements, 3.5×10^4 cells/well were plated on a 24-well tissue culture plate. After 24 h of incubation in DMEM containing 10% FBS, cells were stimulated with LPS (100 ng/mL) and treated with different concentrations of achillolide A. Conditioned media were collected twenty four hours later, and were tested with a rat IL1β ELISA kit (Novus Biologicals; CO, USA), according to the manufacturer's instructions.
2. Plate microglial cells (3.5×10^4 cells/well) on a 24-well tissue culture plate, in DMEM containing 10% FBS, 2 mM glutamine, 100 U/ml penicillin and 100 micrograms/mL streptomycin;
Microglial cells were treated with different concentrations of TTF, followed by stimulation with LPS (100 ng/mL). After 24 h, conditioned media were collected and tested for cytokine levels by ELISA. Cell viability was determined using the crystal violet assay (FIG. 9C). Values represent the means±SEM (n=4 for each treatment).
Microglial cells were treated with 20 μg/mL of achillolide A, followed by stimulation with LPS (4.5 ng/mL). After 5 h the levels of the indicated transcripts were measured by quantitative real-time PCR and the relative quantity (RQ) of the different transcripts were determined. […] The results are expressed as percentages relative to LPS-stimulated cells. […]

NO = NO (nitrite) production by LPS-activated microglial cells (Griess); format: cell-based, rat; conditions: Rattus norvegicus; 40 μM (highest concentration tested); LPS 4.5 ng/mL, 20 h; read-out: inhibition of NO secretion
Procedure: as §1
For NO measurements, 1×10^5 microglial cells/well were plated in a 24-well tissue culture plate. Cells were stimulated with LPS (4.5 ng/mL) and concomitantly treated with achillolide A or a reference drug. NO levels in the culture medium were estimated with Griess reagent.
3. Activate microglial cells with lipopolysaccharide (LPS, 4.5 nanograms/mL);
In FIG. 21 A, microglial cells were treated with different concentrations of achillolide A, dexamethasone or memantine (as reference drugs) and were concomitantly activated by LPS (4.5 ng/mL) for 20 h. Cell conditioned supernatants were collected, and the levels of NO were measured using Griess reaction. Cytotoxicity was measured using the LDH method (FIG. 21B). Values represent the mean±SEM (n=12 for each treatment). ** p<0.01; ***p<0.001 relative to cells that were treated to LPS only.

SMILES | effect on LPS-elicited IL-1β secretion (IL-1β) | inhibition of IL-1β secretion (IL-1β) [%] | inhibition at 40 µM (NO) [%]
COc1cc(-c2oc3cc(OC)c(OC)c(O)c3c(=O)c2O)ccc1O [TTF, 3,5,4′-trihydroxy-6,7,3′-trimethoxyflavone] | markedly inhibited | – | –
C=C1CCC2=C(CO)C(=O)O[C@H]2/C=C(\C)[C@H](OC(C)=O)CC1=O [achillolide A] | – | 59 | 66
CC12CC3CC(C)(C1)CC(N)(C3)C2 [memantine, reference compound] | – | – | 64
